From US7163918B2, “Iodothyronine compositions” (New River Pharmaceuticals Inc., priority 2000, dated 2007)
Blank lines part the entries; values can stand above or below the compound they belong to. Where a SMILES comes first, the peptide text is derived from it. [ ]: non-standard residue; d: D form. Thyronine(3,5,3'-I3) = N[C@@H](Cc1cc(I)c(Oc2ccc(O)c(I)c2)c(I)c1)C(=O)O

What was measured:
[1] = Solid dose oral delivery, total T3 serum concentration AUC
[2] = target: amidase (EC 3.5.1.4; from Pseudomonas aeruginosa) (Pseudomonas aeruginosa, UniProt P11436); settings: Table 1; 37° C., 24 hours
[3] = rat, in vivo
[4] = design: species or system Sprague-dawley rats; settings: rat, in vivo
Method: (§1) Compounds were tested in Sprague-dawley rats (˜250 g). […] Rats were dosed immediately following 0 hour serum collection.

[5] = Solution dose oral delivery, T4 N-capped trimer vs. T4 sodium salt, total serum T4; design: species or system Sprague-dawley rats; settings: rat, in vivo
Method: as §1

amidase (EC 3.5.1.4; from Pseudomonas aeruginosa), sequence (P11436 whole entry): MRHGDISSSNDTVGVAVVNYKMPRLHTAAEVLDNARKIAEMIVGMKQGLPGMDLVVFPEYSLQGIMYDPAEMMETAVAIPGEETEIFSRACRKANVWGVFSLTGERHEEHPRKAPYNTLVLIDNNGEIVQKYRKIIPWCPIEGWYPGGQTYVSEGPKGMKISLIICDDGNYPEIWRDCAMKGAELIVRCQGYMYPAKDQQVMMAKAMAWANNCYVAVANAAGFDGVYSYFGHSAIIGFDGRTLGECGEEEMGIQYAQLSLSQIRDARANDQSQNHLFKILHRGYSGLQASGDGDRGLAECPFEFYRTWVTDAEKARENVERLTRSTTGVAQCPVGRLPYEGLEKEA

SMILES: N[C@@H](CCC(=O)O)C(=O)N[C@@H](CCC(=O)O)C(=O)N[C@@H](CCC(=O)O)C(=O)N[C@@H](CCC(=O)O)C(=O)N[C@@H](CCC(=O)O)C(=O)N[C@@H](CCC(=O)O)C(=O)N[C@@H](CCC(=O)O)C(=O)N[C@@H](CCC(=O)O)C(=O)N[C@@H](CCC(=O)O)C(=O)N[C@@H](CCC(=O)O)C(=O)N[C@@H](CCC(=O)O)C(=O)N[C@@H](CCC(=O)O)C(=O)N[C@@H](CCC(=O)O)C(=O)N[C@@H](CCC(=O)O)C(=O)N[C@@H](CCC(=O)O)C(=O)N[C@@H](Cc1cc(I)c(Oc2ccc(O)c(I)c2)c(I)c1)C(=O)N[C@@H](CCC(=O)O)C(=O)N[C@@H](CCC(=O)O)C(=O)N[C@@H](CCC(=O)O)C(=O)N[C@@H](CCC(=O)O)C(=O)O [20-Mer] (H-EEEEEEEEEEEEEEE[Thyronine(3,5,3'-I3)]EEEE-OH)
total AUC divided by total AUC for T3 sodium ([1]; Study No. 12, rats): (69%)

SMILES: CCCCCCCC(=O)N[C@@H](Cc1cc(I)c(Oc2ccc(OC(=O)CCCCCCC)c(I)c2)c(I)c1)C(=O)O [C8T3(C8), N-Octanoyl-L-triiodothyronine(O-octanoyl)]
enzymatic release of T3, Amidase [2]: 0.0

SMILES: N[C@@H](CCC(=O)O)C(=O)N[C@@H](Cc1cc(I)c(Oc2ccc(O)c(I)c2)c(I)c1)C(=O)O [C-Capped Dimer]
total AUC divided by total AUC for T3 sodium ([1]; Study No. 13, rats): (81%)

SMILES: N[C@@H](Cc1cc(I)c(Oc2ccc(O)c(I)c2)c(I)c1)C(=O)N[C@@H](CCC(=O)O)C(=O)O [N-Capped Dimer]
total AUC divided by total AUC for T3 sodium ([1]; Study No. 11, rats): (104%)

SMILES: CCCCCCCCCCCCCCCC(=O)Oc1ccc(Oc2c(I)cc(CC(N)C(=O)O)cc2I)cc1I.O=C(O)C(F)(F)F (centres unmarked) [T3C16, Trioodothyronine Hexadeconoate—TFA]
enzymatic release of T3, Amidase [2]: 1.2

Now from value to compound:

total AUC divided by total AUC for T3 sodium ([1]; Study No. 13, rats): (89%)
SMILES: N[C@@H](CCC(=O)O)C(=O)N[C@@H](CCC(=O)O)C(=O)N[C@@H](Cc1cc(I)c(Oc2ccc(O)c(I)c2)c(I)c1)C(=O)O [C-Capped Trimer]

increase of Cmax over the corresponding T3 sodium salt control [3]: 50.8%
increase of mean AUC relative to the corresponding T3 sodium salt control [3]: 72.1%
increase of Δmax over the corresponding T3 sodium salt control [3]: 85.6%
total AUC divided by total AUC for T3 sodium ([1]; Study No. 11, rats): 123%
total AUC divided by total AUC for T3 sodium ([1]; Study No. 11, rats, listed as N-Capped Trimer): (123%)
total AUC divided by total AUC for T3 sodium ([1]; Study No. 17, rats): (102%)
increase of Cmax as compared to T3 sodium salt [4]: 65.2%
increase of mean AUC relative to the T3 sodium salt AUC [4]: 50.3%
increase of Δmax relative to the Δmax of T3 sodium salt [4]: 75.9%
SMILES: N[C@@H](Cc1cc(I)c(Oc2ccc(O)c(I)c2)c(I)c1)C(=O)N[C@@H](CCC(=O)O)C(=O)N[C@@H](CCC(=O)O)C(=O)O [T3 N-capped trimer, H-(T3)EE-OH]

Tmax (time to reach maximal concentration) ([5]; Sprague-Dawley, po): 10.2 h
increase of Cmax as compared to the sodium salt [5]: 48%
increase of mean AUC relative to the T4 sodium salt AUC [5]: 115%
increase of Δmax (Δ at Cmax) relative to the Δmax of T4 sodium salt [5]: 68%
Cmax +/− SD ([5]; po): 13.0 ± 0.6 ng/dL
Cmax, Percent of T4 sodium salt ([5]; po): 148%
Delta @ Cmax (change in total T4 serum levels from 0 hour level) ([5]; po): 6.7 ± 1.5 ng/dL
Delta @ Cmax, Percent of T4 sodium salt ([5]; po): 168%
SMILES: N[C@@H](Cc1cc(I)c(Oc2cc(I)c(O)c(I)c2)c(I)c1)C(=O)N[C@@H](CCC(=O)O)C(=O)N[C@@H](CCC(=O)O)C(=O)O [T4 N-capped trimer]
